Measured values as given in publication PMC9837035 (Nature Communications, 2023).
Values joined by “and” are separate entries in the source; they are usually repeats but may differ in a detail not shown here. Identical values can stand only once.

Assays:
[1] = test system: H3K9me2 at the β-globin locus; assay: ChIP-qPCR with antibody against H3K9me2 in HUDEP-2 cells; format: cell-based, human; design: ChIP-qPCR using antibodies against H3K9me2 in HUDEP-2 cells: scale not given here; details: for ChIP-qPCR using antibodies against H3K9me2 in HUDEP-2 cells: experiments 1-3, a/b replicates
Procedure: A total of 0.5–1 × 10^6 cells were cross-linked with 1% formaldehyde for 10 min at room temperature and the reaction was quenched with 250 mM glycine. Cross-linked cells were then lysed with buffer 1 (15 mM Tris-HCl (pH 7.5), 60 mM KCl, 15 mM NaCl, 5 mM MgCl2, 0.1 mM EGTA, 300 mM sucrose, […], 1 mM phenylmethanesulfonyl fluoride (PMSF), 0.5% NP40) and incubated on ice for 10 min. After centrifugation, the pellet was re-suspended in buffer 2 (15 mM Tris-HCl (pH 7.5), 60 mM KCl, 15 mM NaCl, 5 mM MgCl2, 0.1 mM EGTA, 1.2 M sucrose, […], 1 mM PMSF). After centrifugation, the pellet was then re-suspended in MNase buffer (50 mM Tris-HCl (pH 7.5), 1 mM CaCl2, 4 mM MgCl2, 320 mM sucrose, 1 mM PMSF) and digested with 100 U of micrococcal nuclease (Takara) at 37 °C for 15 min. After the reaction was quenched with 20 mM EDTA, the supernatants were incubated with antibodies (anti-H3K9me2 (1:100), Abcam, ab1220; anti-H3K9ac (1:100), Active Motif, 39917; Goat anti-IgG (H + L) (1:100), Jackson Immunoresearch; anti-BCL11A (1:100), Novus Biologicals, NB600-261; anti-ZBTB7A (1:100), Thermo Fisher Scientific, eBioscience (13E9); anti-CHD3 (1:100), Novus Biologicals, NB-100-60412; anti-CHD4 (1:100), abcam, ab240640) and Protein A/G PLUS-Agarose (Santa Cruz Biotechnology) overnight at 4 °C. Beads were washed sequentially once with the following buffers: wash buffer A (50 mM Tris-HCl (pH 7.5), 75 mM NaCl, 10 mM EDTA, 0.01% NP40), wash buffer B (50 mM Tris-HCl (pH 7.5), 100 mM NaCl, 10 mM EDTA, 0.01% NP40), wash buffer C (50 mM Tris-HCl (pH 7.5), 175 mM NaCl, 10 mM EDTA, 0.01% NP40). After treatment with proteinase K in buffer 4 (20 mM Tris-HCl (pH 8.0), 10 mM EDTA, 400 mM NaCl, 0.5% SDS) at 56 °C overnight, DNA was purified using the FastGene Gel/PCR Extraction Kit (Nippon Genetics). The samples were analyzed by qPCR. Primers are listed in Supplementary Table 10. ChIP-seq experiments were performed by GENEWIZ. Tracks were visualized using the integrative genome viewer. ChIP-seq analysis were analyzed Cutadapt (V1.9.1) for QC, FastQC (V0.10.1) for QC assessment, Bowtie (V2.1.0) for mapping, strand cross-correlation (SCC) for ChIP quality assessment, MACS2 for peak calling, and R package ChIPpeakAnno for Peak annotated.

CD34+ cells = assay: Flow cytometry of erythroid differentiation (CD45, glycophorin A); format: cell-based, human
Procedure: For the analysis of HbF expression, HUDEP-2 cells or cells differentiated from human CD34 + progenitor cells were fixed in 0.05% glutaraldehyde for 10 min, then washed two times with PBS containing 2% FBS (PBS/2% FBS) and permeabilized with 0.1% Triton X-100 (prepared in PBS/2% FBS; Life Technologies) for 5 min. After washing with PBS/2% FBS two times, cells were stained with allophycocyanin (APC)-conjugated HbF antibody (1:1, Invitrogen, MHFH05). One million cells were incubated with the HbF–APC antibody for 30 min in the dark at 4 °C. Cells were washed twice with PBS/2% FBS, then suspended in 0.2 ml PBS/2% FBS and analyzed using a FACSCalibur (Becton Dickinson). To assess erythroid differentiation, hematopoietic cells differentiated from human CD34 cells were stained with FITC-conjugated CD45 antibody (1:1, Becton Dickinson, 555482) and APC-conjugated glycophorin A antibody (1:20, Becton Dickinson, 551336). Stained cells were suspended in 0.2 ml PBS/2% FBS containing 1 μg/ml propidium iodide (Sigma) and analyzed by FACSCalibur. The results of flow cytometer were further analyzed by FlowJo software (Becton Dickinson).

[2] = test system: H3K9me2 in peripheral blood; assay: H3K9me2 levels in peripheral blood of treated mice; format: in vivo
Procedure: Preparation of cell lysates and western blotting were performed as described previously. Protein from cells lysates in lysis buffer (50 mM Tris-HCl (pH 7.5), 150 mM NaCl, 5 mM EDTA, 0.1% NP-40, 1 mM dithiothreitol) were separated by sodium dodecyl sulfate–polyacrylamide gel electrophoresis (SDS-PAGE) and transferred to a polyvinylidene difluoride (PVDF) membrane (Millipore) by electroblotting. The membranes incubated with primary antibodies overnight at 4 °C and secondary antibodies for 1 h at room temperature. The immune complexes were detected with the Immobilon Western Chemiluminescent HRP Substrate (Millipore). Luminescence was analyzed on a FUSION SOLO S (Vilber). Western blot bands were visualized using Evolution Capt software (M&S Instruments Inc.). Primary antibodies used were anti-G9a (1:1000, CST, #3306), anti–α-tubulin (1:5000, Abcam, ab18251), anti-H3K9me2 (1:3000, Abcam, ab1220), anti-H3 (1:5000, Abcam, ab1791), anti-H3K27me3 (1:3000, Sigma, 07-449), anti-GLP (1:1000, CST, #35005), anti-FLAG (100 ng/ml, Fujifilm, 01422383), anti-His (1:5000, MBL, PM032), anti-BCL11A (1:1000, abcam, ab19487), anti-ZBTB7A (1:1000, CST, #50565), anti-CHD3 (1:1000, Novus Biologicals, NB100-60412), and anti-CHD4 (1:1000, abcam, ab240640). […]
The dosing solution contained 15% DMSO, 17.5% Cremophor EL, 8.75% EtOH, 8.75% HCO-40, and 50% PBS. […] The weight of each mouse was measured every 3 or 4 days.

EZH1 = EZH1 (Homo sapiens, UniProt Q92800); assay: Radioisotope-based methyltransferase assay (selectivity)
Chain of EZH1 (Q92800 whole entry): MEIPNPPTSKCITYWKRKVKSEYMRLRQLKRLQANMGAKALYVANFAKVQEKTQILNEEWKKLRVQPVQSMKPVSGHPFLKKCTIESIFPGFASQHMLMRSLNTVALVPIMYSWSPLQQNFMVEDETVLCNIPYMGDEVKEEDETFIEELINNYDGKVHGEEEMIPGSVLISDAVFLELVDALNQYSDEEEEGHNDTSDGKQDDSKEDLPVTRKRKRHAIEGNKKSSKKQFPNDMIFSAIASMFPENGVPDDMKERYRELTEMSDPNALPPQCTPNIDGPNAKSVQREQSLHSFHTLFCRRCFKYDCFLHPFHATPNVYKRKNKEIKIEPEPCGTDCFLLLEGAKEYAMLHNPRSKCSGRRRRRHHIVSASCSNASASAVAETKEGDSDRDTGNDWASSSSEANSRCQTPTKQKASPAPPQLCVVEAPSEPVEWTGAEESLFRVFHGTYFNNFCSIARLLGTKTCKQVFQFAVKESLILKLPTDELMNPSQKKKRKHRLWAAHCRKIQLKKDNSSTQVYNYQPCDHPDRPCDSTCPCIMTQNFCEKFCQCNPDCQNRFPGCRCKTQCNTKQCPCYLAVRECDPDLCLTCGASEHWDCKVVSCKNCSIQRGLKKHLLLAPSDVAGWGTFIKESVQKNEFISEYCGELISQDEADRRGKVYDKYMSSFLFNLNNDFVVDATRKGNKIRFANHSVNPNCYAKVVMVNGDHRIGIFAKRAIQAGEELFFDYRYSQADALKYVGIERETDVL
Chain of EZH1 (O75530 whole entry partner): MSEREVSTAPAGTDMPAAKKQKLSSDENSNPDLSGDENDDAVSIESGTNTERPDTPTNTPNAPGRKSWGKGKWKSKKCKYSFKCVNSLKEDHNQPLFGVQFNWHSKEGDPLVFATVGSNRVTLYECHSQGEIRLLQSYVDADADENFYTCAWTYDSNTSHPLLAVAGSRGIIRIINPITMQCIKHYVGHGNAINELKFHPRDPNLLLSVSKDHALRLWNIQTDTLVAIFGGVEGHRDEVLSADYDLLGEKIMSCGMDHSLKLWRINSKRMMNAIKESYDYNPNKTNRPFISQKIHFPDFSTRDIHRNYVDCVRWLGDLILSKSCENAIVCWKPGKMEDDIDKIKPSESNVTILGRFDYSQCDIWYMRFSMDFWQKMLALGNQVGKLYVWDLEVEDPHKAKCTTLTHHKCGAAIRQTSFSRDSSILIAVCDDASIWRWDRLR
Chain of EZH1 (Q15022 whole entry partner): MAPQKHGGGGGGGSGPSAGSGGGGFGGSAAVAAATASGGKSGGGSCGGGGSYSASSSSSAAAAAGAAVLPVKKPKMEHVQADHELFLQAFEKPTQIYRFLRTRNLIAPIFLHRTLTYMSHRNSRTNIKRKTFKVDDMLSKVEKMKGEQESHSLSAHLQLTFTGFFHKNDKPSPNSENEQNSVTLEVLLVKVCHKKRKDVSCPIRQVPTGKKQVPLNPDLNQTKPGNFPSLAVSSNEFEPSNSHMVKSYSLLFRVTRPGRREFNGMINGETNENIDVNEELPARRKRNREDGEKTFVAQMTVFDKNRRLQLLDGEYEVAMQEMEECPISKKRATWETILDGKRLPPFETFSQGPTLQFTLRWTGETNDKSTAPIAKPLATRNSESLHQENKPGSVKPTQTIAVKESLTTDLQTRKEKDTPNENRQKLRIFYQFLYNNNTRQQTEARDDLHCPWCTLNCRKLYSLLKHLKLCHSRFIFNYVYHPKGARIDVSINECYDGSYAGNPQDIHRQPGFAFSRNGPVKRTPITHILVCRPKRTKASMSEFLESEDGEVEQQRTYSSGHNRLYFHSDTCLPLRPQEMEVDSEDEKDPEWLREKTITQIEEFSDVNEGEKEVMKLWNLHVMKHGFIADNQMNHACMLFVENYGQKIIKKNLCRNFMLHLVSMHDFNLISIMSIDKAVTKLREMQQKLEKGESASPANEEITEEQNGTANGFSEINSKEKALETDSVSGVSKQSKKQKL
Chain of EZH1 (Q09028 whole entry partner): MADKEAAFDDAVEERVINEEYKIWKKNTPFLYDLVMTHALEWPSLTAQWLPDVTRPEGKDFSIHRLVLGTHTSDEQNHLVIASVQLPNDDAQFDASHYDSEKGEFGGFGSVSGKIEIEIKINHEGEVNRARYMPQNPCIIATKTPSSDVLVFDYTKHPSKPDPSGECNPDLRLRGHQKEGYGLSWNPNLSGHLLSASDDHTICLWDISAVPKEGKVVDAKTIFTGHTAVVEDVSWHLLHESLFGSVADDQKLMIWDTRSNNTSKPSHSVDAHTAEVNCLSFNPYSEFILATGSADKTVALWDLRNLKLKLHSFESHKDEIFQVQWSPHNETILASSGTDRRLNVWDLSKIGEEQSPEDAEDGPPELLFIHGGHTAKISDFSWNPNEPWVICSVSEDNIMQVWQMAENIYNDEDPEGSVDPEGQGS
Chain of EZH1 (Q6ZN18 whole entry partner): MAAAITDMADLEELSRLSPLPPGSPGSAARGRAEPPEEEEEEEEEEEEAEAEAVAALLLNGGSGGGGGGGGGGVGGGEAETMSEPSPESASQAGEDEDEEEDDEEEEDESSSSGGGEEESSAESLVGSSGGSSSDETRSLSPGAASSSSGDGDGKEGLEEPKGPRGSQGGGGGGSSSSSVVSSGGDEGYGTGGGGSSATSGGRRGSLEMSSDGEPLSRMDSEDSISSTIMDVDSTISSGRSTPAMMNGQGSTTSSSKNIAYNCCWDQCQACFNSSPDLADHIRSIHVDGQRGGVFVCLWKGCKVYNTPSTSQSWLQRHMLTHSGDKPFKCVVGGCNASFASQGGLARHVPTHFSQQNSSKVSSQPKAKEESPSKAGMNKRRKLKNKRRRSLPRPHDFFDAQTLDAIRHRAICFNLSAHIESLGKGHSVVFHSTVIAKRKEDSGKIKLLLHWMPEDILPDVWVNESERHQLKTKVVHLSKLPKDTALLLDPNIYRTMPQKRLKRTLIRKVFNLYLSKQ

SMILES | ChIP-qPCR using antibodies against H3K9me2 in HUDEP-2 cells ([1]; BGLT3 locus) | ChIP-qPCR using antibodies against H3K9me2 in HUDEP-2 cells ([1]; HS1) | ChIP-qPCR using antibodies against H3K9me2 in HUDEP-2 cells ([1]; HS2) | ChIP-qPCR using antibodies against H3K9me2 in HUDEP-2 cells ([1]; HS3) | ChIP-qPCR using antibodies against H3K9me2 in HUDEP-2 cells ([1]; HS4) | H3K9me2 levels at the β-globin gene locus ([1]; HUDEP-2, 200 μM, 4 days) | ChIP-qPCR using antibodies against H3K9me2 in HUDEP-2 cells ([1]; β-globin promoter) | ChIP-qPCR using antibodies against H3K9me2 in HUDEP-2 cells ([1]; γ-globin promoter) | ChIP-qPCR using antibodies against H3K9me2 in HUDEP-2 cells ([1]; δ-globin promoter) | erythroid differentiation (CD34+ cells) | H3K9me2 levels in peripheral blood cells [2] | IC50 (EZH1) [µM]
NC(=O)NO [Hydroxyurea, hydroxyurea] | 0.3036 and 0.9734 and 0.09549 and 0.1907 and 0.4324 and 0.08257 | 0.1874 and 0.4067 and 0.1711 and 0.2985 and 0.4573 and 0.2803 | 0.813 and 0.5625 and 0.04813 and 0.5561 and 0.988 | 0.3829 and 1.033 and 0.3275 and 0.3135 and 0.5984 and 0.1213 | 0.2695 and 0.4846 and 0.05083 and 0.7217 and 0.09433 | did not alter H3K9me2 levels | 0.2611 and 0.4698 and 0.1317 and 0.1934 and 0.3991 and 0.1179 | 0.6385 and 1.7009 and 0.2449 and 0.8192 and 0.4081 | 0.1111 and 0.2374 and 0.06666 and 0.1168 and 0.2688 and 0.05187 |  |  | 
Cc1c(C(=O)NC(CCC2CC2)C(=O)Nc2ccc(C#N)cc2)[nH]c2c1C(=O)CC(C)(C)C2 (stereo not drawn) [RK-701] |  |  |  |  |  |  |  |  |  | without affecting cell viability or erythroid differentiation | significant decrease | > 100
